Values quoted from earlier work as cited in patent publication US20190105332A1, “METHODS OF TREATING PROSTATE CANCER” (Janssen Oncology, Inc., priority 2017, published 2019).
Where two headings read alike, the source gives them in different places. Blank lines part the entries; values can stand above or below the compound they belong to.

Columns and labels:
[1] = for activity of metabolite / share of exposure as circulating metabolite in human plasma: in vivo
[2] = system: primary human lymphocytes
CYP3A4 [3] = target: T1, CYP3A4 (Homo sapiens, UniProt P08684); design: from tissue; host or cells: in vivo, healthy human subjects (endogenous enzyme); conditions: healthy subjects
T1 sequence (P08684 whole entry): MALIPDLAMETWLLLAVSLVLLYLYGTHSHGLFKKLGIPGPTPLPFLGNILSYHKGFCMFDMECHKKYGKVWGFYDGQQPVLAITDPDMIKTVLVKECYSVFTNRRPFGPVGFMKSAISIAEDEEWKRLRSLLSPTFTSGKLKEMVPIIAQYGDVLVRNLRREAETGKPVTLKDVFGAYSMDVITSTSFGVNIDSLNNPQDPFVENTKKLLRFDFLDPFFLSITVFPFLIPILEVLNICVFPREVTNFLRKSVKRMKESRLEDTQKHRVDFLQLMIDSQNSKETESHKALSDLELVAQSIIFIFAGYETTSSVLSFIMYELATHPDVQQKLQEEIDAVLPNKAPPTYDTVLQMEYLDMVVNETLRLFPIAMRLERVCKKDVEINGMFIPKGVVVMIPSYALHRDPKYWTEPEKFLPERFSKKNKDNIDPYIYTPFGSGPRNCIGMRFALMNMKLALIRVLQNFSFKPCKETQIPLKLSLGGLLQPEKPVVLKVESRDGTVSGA

[4] = end-stage renal disease on dialysis; single oral 1,000 mg dose
[5] = system: human plasma proteins, albumin and alpha-1 acid glycoprotein
P-glycoprotein (P-gp) = P-glycoprotein (P-gp) (Homo sapiens, UniProt P08183); conditions: in vitro, clinically relevant concentrations
Chain of P-glycoprotein (P-gp) (P08183 whole entry): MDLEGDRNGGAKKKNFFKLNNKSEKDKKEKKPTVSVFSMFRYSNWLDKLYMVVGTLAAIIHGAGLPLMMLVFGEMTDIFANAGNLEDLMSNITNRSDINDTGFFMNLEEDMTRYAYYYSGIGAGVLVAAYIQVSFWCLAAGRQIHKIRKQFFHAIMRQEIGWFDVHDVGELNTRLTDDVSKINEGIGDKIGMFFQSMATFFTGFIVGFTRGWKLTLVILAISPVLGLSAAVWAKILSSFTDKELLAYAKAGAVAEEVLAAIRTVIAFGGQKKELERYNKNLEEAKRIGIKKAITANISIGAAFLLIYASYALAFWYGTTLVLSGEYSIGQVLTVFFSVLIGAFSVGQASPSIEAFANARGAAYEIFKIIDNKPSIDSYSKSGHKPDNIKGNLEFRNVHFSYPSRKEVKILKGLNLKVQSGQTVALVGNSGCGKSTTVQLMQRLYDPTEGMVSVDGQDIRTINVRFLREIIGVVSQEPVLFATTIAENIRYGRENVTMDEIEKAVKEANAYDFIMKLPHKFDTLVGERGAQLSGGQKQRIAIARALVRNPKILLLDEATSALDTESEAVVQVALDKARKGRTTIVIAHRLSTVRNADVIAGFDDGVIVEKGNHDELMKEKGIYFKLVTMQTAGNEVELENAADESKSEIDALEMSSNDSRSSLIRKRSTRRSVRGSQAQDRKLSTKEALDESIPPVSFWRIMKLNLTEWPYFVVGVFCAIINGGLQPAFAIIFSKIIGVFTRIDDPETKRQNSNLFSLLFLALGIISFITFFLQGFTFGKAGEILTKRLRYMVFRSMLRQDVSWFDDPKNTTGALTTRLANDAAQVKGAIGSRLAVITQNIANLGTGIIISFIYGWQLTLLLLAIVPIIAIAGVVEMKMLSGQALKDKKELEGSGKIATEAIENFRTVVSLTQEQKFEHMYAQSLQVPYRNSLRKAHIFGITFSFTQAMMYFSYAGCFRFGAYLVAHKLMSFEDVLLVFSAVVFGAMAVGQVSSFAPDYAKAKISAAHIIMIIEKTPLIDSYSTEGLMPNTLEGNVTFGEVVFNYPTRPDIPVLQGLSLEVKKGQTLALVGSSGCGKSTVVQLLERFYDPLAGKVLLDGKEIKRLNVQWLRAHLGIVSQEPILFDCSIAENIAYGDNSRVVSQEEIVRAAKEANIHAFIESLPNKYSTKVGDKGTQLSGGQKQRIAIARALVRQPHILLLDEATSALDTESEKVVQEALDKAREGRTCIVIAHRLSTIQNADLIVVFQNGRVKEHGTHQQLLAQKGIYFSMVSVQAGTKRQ

CYP3A4 [6] = target: T1, CYP3A4; conditions: in vitro
OATP1B1 = target: T2, OATP1B1 (Homo sapiens, UniProt Q9Y6L6); conditions: in vitro
T2 sequence (Q9Y6L6 1-691): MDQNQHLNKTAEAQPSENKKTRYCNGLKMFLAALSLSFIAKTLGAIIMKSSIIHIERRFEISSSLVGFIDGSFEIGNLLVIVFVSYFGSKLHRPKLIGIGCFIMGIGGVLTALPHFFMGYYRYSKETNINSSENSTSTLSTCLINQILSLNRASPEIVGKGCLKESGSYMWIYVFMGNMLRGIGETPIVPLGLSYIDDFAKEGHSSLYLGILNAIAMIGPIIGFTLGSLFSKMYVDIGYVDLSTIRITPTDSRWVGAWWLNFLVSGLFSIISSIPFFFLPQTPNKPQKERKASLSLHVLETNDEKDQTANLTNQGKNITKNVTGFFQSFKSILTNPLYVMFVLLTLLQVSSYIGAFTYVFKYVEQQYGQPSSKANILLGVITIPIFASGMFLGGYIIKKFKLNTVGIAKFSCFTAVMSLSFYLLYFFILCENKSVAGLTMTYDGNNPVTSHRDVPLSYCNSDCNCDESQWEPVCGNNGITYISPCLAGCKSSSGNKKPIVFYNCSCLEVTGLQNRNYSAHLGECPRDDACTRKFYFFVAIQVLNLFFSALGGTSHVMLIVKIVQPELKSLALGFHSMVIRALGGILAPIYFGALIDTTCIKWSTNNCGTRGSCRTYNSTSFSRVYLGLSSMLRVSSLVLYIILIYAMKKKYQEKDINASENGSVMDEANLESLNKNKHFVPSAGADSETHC

[7] = not given; remark: listed apart in the source
[8] = rat micronucleus assay
CYP1A2 = target: T3, CYP1A2 (Homo sapiens, UniProt P05177); design: In vitro studies with human hepatic microsomes; from tissue; host or cells: human hepatic microsomes; conditions: human hepatic microsomes
T3 sequence (P05177 1-516): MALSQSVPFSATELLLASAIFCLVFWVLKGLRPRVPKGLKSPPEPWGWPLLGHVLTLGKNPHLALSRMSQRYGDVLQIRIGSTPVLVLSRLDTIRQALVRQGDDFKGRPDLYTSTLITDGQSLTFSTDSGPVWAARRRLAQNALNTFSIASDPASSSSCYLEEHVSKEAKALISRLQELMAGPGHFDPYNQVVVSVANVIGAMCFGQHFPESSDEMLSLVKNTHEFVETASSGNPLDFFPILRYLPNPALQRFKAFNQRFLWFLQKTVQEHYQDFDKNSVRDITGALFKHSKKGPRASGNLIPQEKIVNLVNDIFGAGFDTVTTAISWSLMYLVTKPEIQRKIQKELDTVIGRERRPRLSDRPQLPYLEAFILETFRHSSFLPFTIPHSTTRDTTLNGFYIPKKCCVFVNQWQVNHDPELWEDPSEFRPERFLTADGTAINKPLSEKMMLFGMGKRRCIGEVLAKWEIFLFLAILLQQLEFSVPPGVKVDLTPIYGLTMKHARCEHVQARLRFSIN

[9] = not given; remark: listed apart in the source
CYP2D6 = target: T4, CYP2D6 (Homo sapiens, UniProt P10635); conditions: human hepatic microsomes
T4 construct: from tissue; host or cells: in vivo, trial participants (endogenous hepatic enzyme)
T4 sequence (P10635 whole entry): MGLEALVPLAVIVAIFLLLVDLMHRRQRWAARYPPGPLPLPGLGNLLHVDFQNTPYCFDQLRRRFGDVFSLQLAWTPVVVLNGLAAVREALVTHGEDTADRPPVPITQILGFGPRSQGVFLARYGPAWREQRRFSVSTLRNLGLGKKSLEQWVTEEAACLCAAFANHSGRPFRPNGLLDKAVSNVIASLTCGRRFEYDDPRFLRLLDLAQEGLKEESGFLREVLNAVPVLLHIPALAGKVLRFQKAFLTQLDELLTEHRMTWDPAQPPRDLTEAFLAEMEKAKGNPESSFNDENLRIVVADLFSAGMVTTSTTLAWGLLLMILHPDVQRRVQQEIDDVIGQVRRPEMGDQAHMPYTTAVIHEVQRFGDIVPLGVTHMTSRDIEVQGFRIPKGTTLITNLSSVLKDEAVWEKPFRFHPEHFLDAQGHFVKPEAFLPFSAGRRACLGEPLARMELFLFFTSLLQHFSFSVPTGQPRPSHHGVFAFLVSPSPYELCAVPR

CYP2C9 = target: T5, CYP2C9 (Homo sapiens, UniProt P11712); conditions: human hepatic microsomes
T5 construct: In vitro studies with human hepatic microsomes; from tissue; host or cells: human hepatic microsomes
T5 sequence (P11712 whole entry): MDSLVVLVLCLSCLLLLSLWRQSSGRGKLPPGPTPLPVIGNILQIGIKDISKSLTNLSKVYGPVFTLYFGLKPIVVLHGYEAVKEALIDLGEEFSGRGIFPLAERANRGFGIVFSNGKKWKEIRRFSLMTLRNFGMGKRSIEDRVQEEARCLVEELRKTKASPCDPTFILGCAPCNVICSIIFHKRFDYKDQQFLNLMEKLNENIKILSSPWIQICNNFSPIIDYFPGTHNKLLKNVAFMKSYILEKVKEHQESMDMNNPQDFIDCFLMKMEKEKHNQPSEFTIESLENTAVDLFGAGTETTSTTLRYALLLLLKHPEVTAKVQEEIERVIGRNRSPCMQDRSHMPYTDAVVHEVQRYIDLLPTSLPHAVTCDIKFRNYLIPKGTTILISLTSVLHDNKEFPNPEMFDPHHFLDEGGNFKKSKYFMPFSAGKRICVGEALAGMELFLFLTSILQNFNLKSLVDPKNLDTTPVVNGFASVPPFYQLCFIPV

[10] = healthy subjects, single dose with high-fat (57% fat, 825 calories) meal
[11] = healthy subjects, single dose with low-fat meal (7% fat, 300 calories)

share of exposure as circulating metabolite in human plasma [1]: about 43%
Compound: C[C@]12CC[C@H](OS(=O)(=O)O)CC1=CC[C@@H]1[C@@H]2CC[C@]2(C)C(c3ccc[n+]([O-])c3)=CC[C@@H]12 [N-oxide abiraterone sulphate]
activity of metabolite [1]: inactive

effect of ketoconazole co-administration on pharmacokinetics (CYP3A4 [3]): no clinically meaningful effect | decrease of exposure (mean plasma AUC∞) with rifampin (CYP3A4 [3]; rifampin 600 mg daily for 6 days, then single 1,000 mg abiraterone acetate): 55% | systemic exposure vs normal renal function [4]: did not increase | steady-state Cmax (mean±SD) (1,000 mg daily, patients with metastatic CRPC): 226 ± 178 ng/mL | increase in the mean AUC when dose doubled (from 1,000 to 2,000 mg): 8% | accumulation: steady-state AUC compared to a single 1,000 mg dose (human, in vivo): 2 fold | median time to reach maximum plasma abiraterone concentrations (oral abiraterone acetate, patients with metastatic CRPC): 2 h | compound present in feces, share of the administered dose ([1]; oral 14C-abiraterone acetate): ~22% | bound to human plasma proteins [5]: > 99% | substrate of P-glycoprotein (P-gp) (P-glycoprotein (P-gp)): not substrates | substrate of CYP3A4 (CYP3A4 [6]): substrate | inhibition of hepatic uptake transporter OATP1B1 (OATP1B1): inhibit | mean half-life ([7]; mild hepatic impairment): approximately 18 hours | mean half-life ([7]; moderate hepatic impairment): approximately 19 hours | systemic exposure (AUC) increase vs normal hepatic function ([7]; moderate hepatic impairment (Child-Pugh Class B), single oral 1,000 mg dose): ~3.6 fold | systemic exposure (AUC) increase vs normal hepatic function ([7]; severe hepatic impairment (Child-Pugh Class C)): approximately 7 fold | inhibition of CYP1A2 (CYP1A2): potential to inhibit | AUC0-∞, fold higher vs overnight fasting [9, 10]: ~10 fold | Cmax, fold higher vs overnight fasting [9, 10]: approximately 17 fold | AUC0-∞, fold higher vs overnight fasting [9, 11]: ~5 fold | Cmax, fold higher vs overnight fasting [9, 11]: approximately 7 fold | systemic exposure increase vs dosing away from meals ([9]; patients with metastatic CRPC, repeated dosing with high-fat meals for 7 days): approximately 2 fold | systemic exposure vs dosing away from meals ([9]; patients with metastatic CRPC, repeated dosing with low-fat meals for 7 days): similar | AUC0-∞, fold higher vs overnight fasting ([9]; single dose 1 hour before a medium fat meal (25% fat, 491 calories)): ~1.6 fold | AUC0-∞, fold higher vs overnight fasting ([9]; single dose 2 hours after a medium fat meal (25% fat, 491 calories)): approximately 7 fold | inhibition of CYP2D6 (CYP2D6): potential to inhibit | inhibition of CYP2C9 (CYP2C9): to a lesser extent
Compound: C[C@]12CC[C@H](O)CC1=CC[C@@H]1[C@@H]2CC[C@]2(C)C(c3cccnc3)=CC[C@@H]12 [abiraterone]
clastogenicity in vitro [2]: not mutagenic in an in vitro microbial mutagenesis (Ames) assay or clastogenic | dose proportionality (dose range of 250 mg to 1,000 mg): No major deviation from dose proportionality | clastogenicity in vivo [8]: not mutagenic in an in vitro microbial mutagenesis (Ames) assay or clastogenic

share of exposure as circulating metabolite in human plasma [1]: about 43%
Compound: abiraterone sulphate
activity of metabolite [1]: inactive
